{
  "source": "patent US6403606B1",
  "about": "“Thienopyridine derivatives and their use” (Takeda Chemical Industries Ltd., priority 1996, dated 2002)",
  "key": {"[1]": {"tested_on": "fetal rat bone culture (humeri, radii and ulnae)", "experiment": "Bone resorption inhibitory activity, 45Ca release from fetal rat bone culture (Test Example 2A)", "assay_type": "cell-based, Sprague-Dawlay rat", "conditions": "10 μM compound, 2 days culture; 45Ca release as % of control without compound (lower = more inhibition)", "procedure": "The measurement of bone resorption inhibitory activity was carried out according to the method of Raisz [J. Clin. Invest., 44, 103-116 (1965)]. Namely, 50 μCi of ^45Ca (radioisotope of calcium in CaCl2 solution) was subcutaneously injected into a Sprague-Dawlay rat of 18th day of pregnancy. On the next day, the abdomen was opened and a fetal rat was taken out sterilely. The left and right humeri (radii and ulnae) were removed from the body under a dissection microscope and connective tissues and cartilages were removed as much as possible. Thus, bone culture samples were prepared. The bone was incubated in a medium (0.6 ml) of BCJb medium (Fitton-Jackson modification: GIBCO Laboratories, U.S.A.) containing 2 mg/ml of bovine serum albumin at 37° C. for 24 hours in an atmosphere of 5% of CO2 in air. The bones were cultured for an additional 2 days in the above medium containing a final concentration of 10 μM of the compound. The ratio (%) of ^45Ca released from the bone into the medium was calculated according to the following equation. [formula]\nThe bones from the same litter were cultured for 2 days the same manner without addition of the compound, and used as the control. The mean±standard deviation of the values for five bones of each group was calculated. The ratio (%) of this value to the control value was calculated. The results are shown in Table 2 (In the tables hereinafter, Ex. No. indicates Example No.)."}, "Rat Adjuvant Arthritis": {"tested_on": "Rat Adjuvant Arthritis", "experiment": "Activity on rat adjuvant arthritis (Test Example 1A)", "assay_type": "in vivo, Male Lewis rats", "conditions": "6.25 mg/kg once daily for 14 days, relative to non-sensitized rats, N=6; for Body weight gain rate (%): day 14; for Edema inhibitory rate (%): left hind paw volume day 14", "procedure": "Male Lewis rats (7 weeks old, Clea Japan) were sensitized by intracutaneous injection of 0.05 ml of Freund's complete adjuvant (0.5% dead tubercle bacillus cell suspension in liquid paraffin) at the right hind paw. The test drug (6.25 mg/kg), in a suspension in 0.5% methyl cellulose, was administered once daily for 14 days starting just before sensitization (day 0). At the days 0 and 14, the left hind paw volume and body weight of the animals were measured using a plethysmometer (manufactured by Ugo Basile Company, Italy) and an electronic balance (EB-3200D, manufactured by Shimadzu Corporation, Japan), respectively, and paw swelling suppression rate (%) and body weight gain rate (%), relative to non-sensitized rats, were determined.\nThe results, expressed in mean±S.E. for each group (N=6), were compared and statistically analyzed by Dunnet method. Level of significance was set below 5%."}},
  "note": "Marks after values point to notes of the source that are not given here.",
  "data": [
    {"smiles": "CCOC(=O)c1c(CCCn2cncn2)nc2sc3c(c2c1-c1ccc(OC)c(OC)c1)CCN(C(=O)c1ccc(Cl)cc1)C3", "note": "[Example 27A, ethyl 7-(4-chlorobenzoyl)-4-(3,4-dimethoxyphenyl)-5,6,7,8-tetrahydro-2-[3-(1,2,4-triazol-1-yl]propyl]thieno[2,3-b:5,4-c′]dipyridine-3-carboxylate]", "values": [
      {"measurement": "Bone resorption inhibitory activity (^45Ca release) (% based on the control value)", "setting": "[1]", "result": "74* % based on the control value"},
      {"measurement": "melting point", "result": "114 to 116", "unit": "°C"}
    ]},
    {"smiles": "CCOC(=O)c1c(CN(CC)CC)nc2sc3cnccc3c2c1-c1ccc(OC)c(OC)c1", "note": "[Example 7A, ethyl 2-(N,N-diethylaminomethyl)-4-(3,4-dimethoxyphenyl)thieno[2,3-b:5,4-c′]dipyridine-3-carboxylate]", "values": [
      {"measurement": "Body weight gain rate (%)", "setting": "Rat Adjuvant Arthritis", "result": "26** %"},
      {"measurement": "Edema inhibitory rate (%)", "setting": "Rat Adjuvant Arthritis", "result": "84** %"}
    ]},
    {"smiles": "CCOC(=O)c1c(CN(CC)CC)nc2sc3c(c2c1-c1ccc(OC)c(OC)c1)CCNC3", "note": "[Example 5A, ethyl 2-(N,N-diethylaminomethyl)-4-(3,4-dimethoxyphenyl)-5,6,7,8-tetrahydrothieno-[2,3-b:5,4-c′]dipyridine-3-carboxylate]", "values": [
      {"measurement": "Bone resorption inhibitory activity (^45Ca release) (% based on the control value)", "setting": "[1]", "result": "72* % based on the control value"},
      {"measurement": "melting point", "result": "72 to 75", "unit": "°C"}
    ]},
    {"smiles": "CCOC(=O)c1c(CN(CC)CC)nc2sc3c(c2c1-c1ccc(OC)c(OC)c1)CCN(C(C)=O)C3", "note": "[Example 15A, ethyl 7-acetyl-2-(N,N-diethylaminomethyl)-4-(3,4-dimethoxyphenyl)-5,6,7,8-tetrahydrothieno[2,3-b:5,4-c′]dipyridine-3-carboxylate]", "values": [
      {"measurement": "Body weight gain rate (%)", "setting": "Rat Adjuvant Arthritis", "result": 9, "unit": "%"},
      {"measurement": "Edema inhibitory rate (%)", "setting": "Rat Adjuvant Arthritis", "result": "60** %"}
    ]},
    {"smiles": "CCOC(=O)c1c(CN(CC)CC)nc2sc3c(c2c1-c1ccc(OC)c(OC)c1)CCN(C(=O)c1ccccc1)C3", "note": "[Example 1A, ethyl 7-benzoyl-2-(N,N-diethylaminomethyl)-4-(3,4-dimethoxyphenyl)-5,6,7,8-tetrahydrothieno[2,3-b:5,4-c′]dipyridine-3-carboxylate]", "values": [
      {"measurement": "Body weight gain rate (%)", "setting": "Rat Adjuvant Arthritis", "result": 15, "unit": "%"},
      {"measurement": "Edema inhibitory rate (%)", "setting": "Rat Adjuvant Arthritis", "result": 49, "unit": "%"}
    ]},
    {"smiles": "CCOC(=O)c1c(CN(CC)CC)nc2sc3c(c2c1-c1ccc(CC)cc1)CCNC3", "note": "[Example 33A, ethyl 4-(4-ethylphenyl)-5,6,7,8-tetrahydro-2-(N,N-diethylaminomethyl)thieno[2,3-b:5,4-c′]dipyridine-3-carboxylate]", "values": [
      {"measurement": "Bone resorption inhibitory activity (^45Ca release) (% based on the control value)", "setting": "[1]", "result": "72** % based on the control value"},
      {"measurement": "melting point", "result": "107 to 108", "unit": "°C"}
    ]},
    {"smiles": "CCOC(=O)c1c(CN(CC)CC)nc2sc3c(c2c1-c1ccc(CC)cc1)CCN(OC(=O)CC)C3", "note": "[Example 39A]", "values": [
      {"measurement": "melting point", "result": "97 to 99", "unit": "°C"}
    ]},
    {"smiles": "CCOC(=O)c1c(CCCCn2cncn2)nc2sc3cnccc3c2c1-c1ccc(OC)c(OC)c1", "note": "[Example 30A, ethyl 4-(3,4-dimethoxyphenyl)-2-[4-(1,2,4-triazol-1-yl)butyl]thieno[2,3-b:5,4-c′]dipyridine-3-carboxylate]", "values": [
      {"measurement": "melting point", "result": "118 to 119", "unit": "°C"}
    ]},
    {"smiles": "COc1cc(-c2c(Cl)c(CNC(C)(C)C)nc3sc4c(c23)CCN(C(=O)c2ccccc2)C4)ccc1OC(C)C", "note": "[Example 9B, 7-benzoyl-2-(tert-butylaminomethyl)-3-chloro-4-(4-isopropoxy-3-methoxyphenyl)-5,6,7,8-tetrahydrothieno[2,3-b:5,4-c′]dipyridine]", "values": [
      {"measurement": "melting point", "result": "165 to 166", "unit": "°C"}
    ]},
    {"smiles": "CCOC(=O)c1c(CN(CC)CC)nc2sc3c(c2c1-c1ccc(OC)c(OC)c1)CCCN3C(=O)OCc1ccccc1", "note": "[Example 58A, ethyl 8-benzyloxycarbonyl-2-diethylaminomethyl-4-(3,4-dimethoxyphenyl)-5,6,7,8-tetrahydrothieno[2,3-b:5,4-b′]dipyridine-3-carboxylate]", "values": [
      {"measurement": "melting point", "result": "138 to 139", "unit": "°C"}
    ]},
    {"smiles": "COc1ccc(-c2c(Cl)c(COC3=NN(c4ccccc4)CC3)nc3sc4c(c23)CCN(Cc2ccccc2)C4)cc1OC", "note": "[Example 32B, 7-benzyl-3-chloro-4-(3,4-dimethoxyphenyl)-2-(1-phenyl-2-pyrazolin-3-yloxymethyl)-5,6,7,8-tetrahydrothieno[2,3-b:5,4-c′]dipyridine]", "values": [
      {"measurement": "melting point", "result": "157 to 158", "unit": "°C"}
    ]},
    {"smiles": "CCOC(=O)c1c(CN(CC)CC)nc2sc3c(c2c1-c1ccc(OC)c(OC)c1)CCN(C(=O)Nc1ccccc1)C3", "note": "[Example 12A, ethyl 2-(N,N-diethylaminomethyl)-4-(3,4-dimethoxyphenyl)-7-phenylcarbamoyl-5,6,7,8-tetrahydrothieno[2,3-b:5,4-c′]dipyridine-3-carboxylate]", "values": [
      {"measurement": "Bone resorption inhibitory activity (^45Ca release) (% based on the control value)", "setting": "[1]", "result": "77* % based on the control value"},
      {"measurement": "melting point", "result": "154 to 155", "unit": "°C"}
    ]},
    {"smiles": "CCOC(=O)c1c(Cc2nc[nH]n2)nc2sc3cnccc3c2c1-c1ccc(OC)c(OC)c1", "note": "[Example 22A, ethyl 4-(3,4-dimethoxyphenyl)-2-(1,2,4-triazol-ylmethyl)thieno[2,3-b:5,4-c′]dipyridine-3-carboxylate]", "values": [
      {"measurement": "melting point", "result": "172 to 174", "unit": "°C"}
    ]},
    {"smiles": "COc1ccc(-c2c(Cl)c(CNC(=O)c3cccnc3)nc3sc4c(c23)CCN(Cc2ccccc2)C4)cc1OC", "note": "[Example 22B, 7-benzyl-3-chloro-4-(3,4-dimethoxyphenyl)-2-(nicotinoylaminomethyl)-5,6,7,8-tetrahydrothieno[2,3-b:5,4-c′]dipyridine]", "values": [
      {"measurement": "melting point", "result": "124 to 125", "unit": "°C"}
    ]},
    {"smiles": "CCOC(=O)c1c(CN2C(=O)CN(C)C2=O)nc2sc3c(c2c1-c1ccc(OC)c(OC)c1)CCN(C(=O)c1ccccc1)C3", "note": "[Example 52A, ethyl 7-benzoyl-4-(3,4-dimethoxyphenyl)-2-(1-methylhydantoin-3-ylmethyl)-5,6,7,8-tetrahydrothieno[2,3-b:5,4-c′]dipyridine-3-carboxylate]", "values": [
      {"measurement": "melting point", "result": "185 to 187", "unit": "°C"}
    ]},
    {"smiles": "CCOC(=O)c1c(CN(CC)CC)nc2sc3c(c2c1-c1ccc(OC)c(OC)c1)CCN(S(=O)(=O)c1ccccc1)C3", "note": "[Example 9A, ethyl 7-benzenesulfonyl-2-(N,N-diethylaminomethyl)-4-(3,4-dimethoxyphenyl)-5,6,7,8-tetrahydrothieno[2,3-b:5,4-c′]dipyridine-3-carboxylate]", "values": [
      {"measurement": "melting point", "result": "161 to 162", "unit": "°C"}
    ]},
    {"smiles": "CCOC(=O)c1c(CCCn2cncn2)nc2sc3cnccc3c2c1-c1ccc(OC)c(OC)c1", "note": "[Example 29A, ethyl 4-(3,4-dimethoxyphenyl)-2-[3-(1,2,4-triazol-1-yl)propyl]thieno[2,3-b:5,4-c′]dipyridine-3-carboxylate]", "values": [
      {"measurement": "melting point", "result": "127 to 129", "unit": "°C"}
    ]},
    {"smiles": "CCOC(=O)c1c(Cn2cncn2)nc2sc3ccncc3c2c1-c1ccc(OC)c(OC)c1", "note": "[Example 66A, ethyl 4-(3,4-dimethoxyphenyl)-2-(1,2,4-triazol-1-ylmethyl)thieno[2,3-b:4,5-c′]dipyridine-3-carboxylate]", "values": [
      {"measurement": "melting point", "result": "166 to 167", "unit": "°C"}
    ]},
    {"smiles": "CCOC(=O)c1c(CN(C)O)nc2sc3c(c2c1-c1ccc(OC)c(OC)c1)CCN(C(=O)c1ccccc1)C3", "note": "[Example 25A, ethyl 7-benzoyl-4-(3,4-dimethoxyphenyl)-2-(N-hydroxy-N-methylaminomethyl)-5,6,7,8-tetrahydrothieno[2,3-b:5,4-c′]dipyridine-3-carboxylate]", "values": [
      {"measurement": "melting point", "result": "129 to 130", "unit": "°C"}
    ]},
    {"smiles": "CCOC(=O)c1c(CCc2nccn2C)nc2sc3c(c2c1-c1ccc(OC)c(OC)c1)CCN(C(=O)c1ccccc1)C3", "note": "[Example 23A, ethyl 7-benzoyl-4-(3,4-dimethoxyphenyl)-5,6,7,8-tetrahydro-2-[2-(1-methylimidazol-2-yl)ethyl]thieno[2,3-b:5,4-c′]dipyridine-3-carboxylate]", "values": [
      {"measurement": "melting point", "result": "170 to 217", "unit": "°C"}
    ]},
    {"smiles": "CCOC(=O)c1c(CN(CC)CC)nc2sc3cnccc3c2c1-c1ccc(O)c(OC)c1", "note": "[Example 51A, ethyl 2-diethylaminomethyl-4-(4-hydroxy-3-methoxyphenyl)thieno[2,3-b:5,4-c′]dipyridine-3-carboxylate]", "values": [
      {"measurement": "melting point", "result": "179 to 181", "unit": "°C"}
    ]},
    {"smiles": "CCOC(=O)c1c(CN(CC)CC)nc2sc3ccncc3c2c1-c1ccc(OC)c(OC)c1", "note": "[Example 55A, ethyl 2-diethylaminomethyl-4-(3,4-dimethoxyphenyl)thieno[2,3-b:4,5-c′]dipyridine-3-carboxylate]", "values": [
      {"measurement": "melting point", "result": "141 to 142", "unit": "°C"}
    ]},
    {"smiles": "CCOC(=O)c1c(CN(CC)CC)nc2sc3c(c2c1-c1ccc(Cl)cc1)CCNC3", "note": "[Example 6A, ethyl 4-(4-chlorophenyl)-2-(N,N-diethylaminomethyl)-5,6,7,8-tetrahydrothieno[2,3-b:5,4-c′]dipyridine-3-carboxylate]", "values": [
      {"measurement": "melting point", "result": "104 to 106", "unit": "°C"}
    ]},
    {"smiles": "COc1ccc(C2(Cl)CC(CNC(C)(C)C)=Nc3sc4c(c32)CCNC4)cc1OC", "note": "(stereo not shown) [Example 10B, 2-(tert-butylaminomethyl)-4-chloro-4-(3,4-dimethoxyphenyl)-5,6,7,8-tetrahydrothieno(2,3-b:5,4-c′]dipyridine]", "values": [
      {"measurement": "melting point", "result": "162 to 163", "unit": "°C"}
    ]}
  ]
}
